Experimental data reported in patent US6794154B1, “Remedies for kidney diseases and method for screening the same” (Tanabe Seiyaku Co., Ltd., priority 1999, dated 2004).

Key:
[1] = tested on: L-FABP mRNA in human urinary exfoliated cells (human renal tubular epithelial cells); assay: L-FABP up-regulating activity at mRNA level (RT-PCR) in human urinary exfoliated cells; type: cell-based; conditions: 10 μM (Table 1), listed as THA
Experimental: Renal tubular epithelial cells exfoliated from kidney tissues into urine (hereafter, referred to as “urinary exfoliated cell”) were isolated from human urine sample and cultured in the following manner. Firstly, urine samples from male infant nephritis patients (0-3 years old) were collected using the clean-catch method. The urine samples were then centrifuged (1000 rpm, 10 minutes) at room temperature and the supernatant was discarded. The pellet was washed with 10% (v/v) fetal calf serum-containing Dulbecco's modified Eagle's medium twice and then with culture medium once. The culture medium used herein was a mixture (1:1) of Dulbecco's modified Eagle's medium and Ham's F-12 medium, to which mixture was added fetal calf serum (10% v/v), insulin (5 μg/ml), transferrin (5 μg/ml), sodium selenite (5 ng/ml), dexamethasone (10^−8 M), nicotinamide (5 mM), penicillin (100 IU/ml) and streptomycin (100 μg/ml). The pellet was suspended into the culture medium, diluted appropriately and then cultured in collagen type 4-coated dish (3.5 cm in diameter, Falcon). The cultivation was performed under the condition of 5% CO2, 37° C. […] Also, in order to normalize the measurement values, rBAT (related to b^0,+ system amino acid transporter; Purroy et. al., Genomics, Vol 37. pp. 249-252, 1996) mRNA was detected as control by RT-PCR.

[2] = tested on: human L-FABP gene transcriptional regulatory region (luciferase reporter); assay: L-FABP up-regulating activity by luciferase reporter assay in proximal renal tubular epithelial cell line mProx 37-13; type: cell-based; conditions: mProx 37-13 cells, serum-free medium, luciferase measured after 2 to 10 hours; FIG. 4
Experimental: A test substance was examined for the L-FABP up-regulating activity by reporter assay method in the following manner using the proximal renal tubular epithelial cell line mProx 37-13 (also referred as “cell line No. 13”) comprising L-FABP reporter DNA construct and was prepared in Example 2 above. Firstly, the cell line mProx 37-13 was added in 96-well flat-bottom plates at 5×10^4 cells/ 100 μl/well and cultured. The cultivation was conducted using plates pre-coated with 0.1% gelatin and, as a medium, a high glucose-containing Dulbecco's MEM medium (Dulbecco's MEM, high glucose; DMEM) (Gibco) supplemented with 10% fetal calf serum, 100 unit/ml of penicillin and 100 μg/ml of streptomycin. […] After additional cultivation, Luciferase activity was detected after 2 to 10 hours. Luciferase activity was measured in the following way. […] After the plate stored at −80° C. was allowed to become room temperature, 100 μl of luminescence substrate solution (PicaGene luminescence kit, TOYO INK) was added to initiate reaction. Amount of luminescence was detected using luminometer (MicroLumat LP98P, BERTHOLD). […] The luciferase induction rate (Luc induction rate) was calculated based on the activity value according to the following equation: Luc induction rate=(test value)/(control value).

human L-FABP = assay: L-FABP up-regulating activity at protein level (Western blotting or ELISA) in LLC-PK1 or mouse immortalized renal tubular epithelial cells carrying the human L-FABP chromosomal gene; type: cell-based; conditions: 1 μM, serum-free DMEM; anti-human L-FABP antibody
From the text: The plasmid isolated in Example 1, (2) above, which contains human L-FABP chromosomal gene (entire length), was linealized and transfected into the porcine renal tubular cell line LLC-PK1 or mouse immortalized renal tubular epithelial cells prepared in a manner similar to that described in Example 2 (3) above to obtain stable transformed cell lines. The human L-FABP chromosomal gene was integrated into these cells on their chromosome without deletion. Using these cells, L-FABP up-regulating activity of test compounds were examined at RNA level and protein level in the following manner. Cells were cultured to become confluent, when the medium was replaced with serum-free DMEM medium, and test compounds were added to the medium at final concentration of 1 μM. The cultivation was continued at 37° C. Control sample was obtained without adding any test compounds. Measurement at protein level was carried out in the following manner. Cultivated cells were collected and sonicated and then cell extract was prepared. The amount of L-FABP in the extract was detected by Western Blotting method or ELISA method with anti-human L-FABP antibody. […] The up-regulating effect on L-FABP protein expression was also observed when Etomoxir was added.

human L-FABP mRNA = assay: L-FABP up-regulating activity at mRNA level (RT-PCR) in LLC-PK1 or mouse immortalized renal tubular epithelial cells carrying the human L-FABP chromosomal gene; type: cell-based; conditions: 1 μM, serum-free DMEM; from 15 minute to 24 hour after beginning of cultivation; normalised to GAPDH mRNA
From the text: The plasmid isolated in Example 1, (2) above, which contains human L-FABP chromosomal gene (entire length), was linealized and transfected into the porcine renal tubular cell line LLC-PK1 or mouse immortalized renal tubular epithelial cells prepared in a manner similar to that described in Example 2 (3) above to obtain stable transformed cell lines. The human L-FABP chromosomal gene was integrated into these cells on their chromosome without deletion. Using these cells, L-FABP up-regulating activity of test compounds were examined at RNA level and protein level in the following manner. Cells were cultured to become confluent, when the medium was replaced with serum-free DMEM medium, and test compounds were added to the medium at final concentration of 1 μM. The cultivation was continued at 37° C. Control sample was obtained without adding any test compounds. Measurement at mRNA level was carried out in the following manner. After cultivation, cells were collected and total RNA was prepared. […] Also, in order to normalize the measurement values, GAPDH (glyceraldehyde 3-phosphate dehydrogenase) mRNA was detected as control in the similar RT-PCR. The resulted PCR products were subjected to agarose-gel electrophoresis, the gel was stained with ethidium bromide to detect bands respectively and the expression amount was determined by densitometry, or visually.

[3] = tested on: adriamycin-induced glomerular sclerosis mouse; assay: Adriamycin-induced glomerular sclerosis model mouse (BALB/c); type: in vivo
From the text: An adriamycin-induced glomerular sclerosis mouse was used as a renal disease model to confirm effect of PPAR agonist MCC-555 in the following manner. An adriamycin(AD)-induced glomerular sclerosis mouse is a pathological model which develops focal glomerular sclerosis in 3 weeks after the onset of nephrosis symptom while showing the symptom and eventually results in irreversible chronic renal insufficiency (Chen et. al., Nephron, vol. 78, pp.440-452, 1998). As shown in Examples 3, 4 and 5, MCC-555 is a compound confirmed to have L-FABP up-regulating activity. In the experiment, 7-week-age female BALB/c mice (purchased from Charles River Japan, Inc.) were used. At the first day of experiment (Day 0), Adriamycin (Sigma) was administered intravenously at 10 mg/kg (10 ml/kg dissolved in saline at 1 mg/ml). Normal group received intravenously an equivalent amount of saline only. To the mice were administered orally MCC-555 or carrier alone for 14 days from the first day of experiment (Day 0 to Day 13). The administration was initially conducted 1 hour before the adriamycin administration, and administration volume was 10 ml/kg for each time. In drug administration group (n=6), MCC-555 (suspension in 0.1% Tween 80-containing purified water) was administered at a dose of 10 mg/kg to mice that have received adriamycin. In control group (n=6), carrier (0.1% Tween 80-containing purified water) alone was administered to mice that have received adriamycin. Also in normal group (n=3), mice received carrier alone. Mice were separately housed in “a metabolic cage” and allowed to access food and water ad libitum while collecting urine for 24 hours. Specifically, collection of urine was performed 4 times in total, i.e., day 3-4, day 6-7, day 9-10, and day 13-14. Following measurement of volume, the collected urine was subjected to determination of urinary protein, NAG (N-acetyl-β-D-glucosaminidase) and creatinine (CRE) concentrations by clinical chemistry analyzer (SuperZ-818, […] Co.) After the collection of urine on the last experiment day (Day 14), blood was collected via abdominal aorta under ethereal anesthetization and serum was separated. Cholesterol and albumin were determined using Automated clinical analyzer TBA-80FR (TOSHIBA). Also, kidneys were isolated and fixed with neutral buffered formalin.

[4] = tested on: adriamycin-induced glomerular sclerosis hFABP-Tg mouse; assay: Adriamycin-induced glomerular sclerosis model in transgenic mouse introduced with human L-FABP gene (hFABP-Tg mouse); type: in vivo; conditions: 10 mg/kg
Experimental: Transgenic mouse (hFABP-Tg mouse) introduced with human L-FABP gene was prepared. The hFABP-Tg mouse was used to make renal disease model similar to that of Example 8 and the effect of MCC-555 was identified.
In the preparation of hFABP-Tg mouse, male BCF1 mouse (13-week or over) was used for sterile mating and natural mating; female ICR mouse (10-week or over) for embryo transplant and as a foster mother; male BDF1 mouse (13-week or over) for mating; and female BCF1 mouse (8-week or over) for collection of eggs, respectively. The resultant transgenic mouse (B6C3F1 line) was used to backcross with BALB/c mouse.
The resultant female transgenic mouse was used to prepare a renal disease model (adriamycin-induced glomerular sclerosis model) and to confirm effects of drug (MCC-555). The preparation of disease model and confirmation of effect of a drug were conducted in a similar manner to that described in Example 8 above except that the dose of adriamycin on the first experiment day (Day 0) was 15 mg/kg (15 ml/kg, dissolved in saline at concentration of 1 mg/ml).
In drug administration group (n=5), MCC-555 (10 mg/kg) was administered to mice that have received adriamycin, and in control group (at the beginning of experiment, n=5), only carrier was administered to mice that have received adriamycin, In normal group (n=3), mice that were not treated with adriamycin received carrier. Collection of urine was performed 3 times in total, i.e., day 6-7 day (Day 7), day 10-11 (Day 11), and day 13-14 (Day 14) and urinary protein, NAG and creatinine concentrations were determined by Automated clinical analyzer after measurements of urine volume.

[5] = adriamycin 15 mg/kg, Day 7, 11, 14, FIG. 9

Structure (SMILES) | L-FABP mRNA [1] | Induction of luciferase activity (L-FABP up-regulating activity) [2] | Up-regulating effect on L-FABP protein expression (human L-FABP) | Induction of L-FABP mRNA (human L-FABP mRNA) | Histological changes of kidney (tissue imaging examination) ([3]; 10 mg/kg orally for 14 days) | NAG excretion (index of proximal renal tubular injury) ([3]; 10 mg/kg orally for 14 days (Day 0 to Day 13), adriamycin 10 mg/kg i.v., FIG. 7) | Proteinuria (urinary protein) ([3]; 10 mg/kg orally for 14 days, adriamycin 10 mg/kg i.v., FIG. 7) | Blood biochemical examination parameters (blood cholesterol and albumin level) ([3]; 10 mg/kg orally for 14 days, serum at Day 14, FIG. 8) | Increase of NAG excretion amount after AD administration [4, 5] | Increase of urinary protein after AD administration [4, 5] | Animals died during the experiment ([4]; n=5, in the control group 3 animals died)
CCCc1c(OCCCCCCc2nn[nH]n2)ccc(C(C)=O)c1O [4-THA, 2-hydroxy-3-propyl-4-[6-(tetrazol-5-yl)hexyloxy]acetophenone] | increased | – | – | – | – | – | – | – | – | – | –
CCOC(=O)C1(CCCCCCOc2ccc(Cl)cc2)CO1 (stereo not shown) [Etomoxir, ethyl 2-[6-(4-chlorophenoxy)hexyl]oxiranecarboxylate] | – | Induction of luciferase activity was observed | also observed | – | – | – | – | – | – | – | –
O=C1NC(=O)C(Cc2ccc3cc(OCc4ccccc4F)ccc3c2)S1 (stereo not shown) [MCC-555, 5-[6-(2-fluorobenzyloxy)naphthalene-2-ylmethyl]thiazolidine-2,4-dione] | – | Induction of luciferase activity was observed | up-regulating effect on L-FABP protein expression was observed | induction of L-FABP mRNA was observed | inhibited | suppressed | improved | improved | significantly suppressed | significantly suppressed | no animals died
